This is an account of results in patent US12448400B2, “KRAS G12D modulating compounds” (priority 2023, dated 2025).

The nature of series [1]: Mouse oral cassette pharmacokinetics. It is filed as in vivo, male CD-1 mice. The conditions noted are these: male, CD-1, mouse, in vivo, po, 30 mg/kg. The gist of the method:
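Male CD-1 mice (n=4) dosed orally by gavage at 30 mg-eq./kg per compound as cassettes of 1–3 compounds in 10 w/v % Captisol/50 mM citrate. Plasma sampled 0.5–24 h post dose, analysed by LC-MS/MS; Cmax and AUClast from non-compartmental analysis.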

Series [2] can be described thus: Dog oral pharmacokinetics. On the set-up: species or system Male Beagle dogs. The conditions noted are these: male, Beagle, in vivo. How it is done: Dog Oral Pharmacokinetics
Test compounds were formulated in solution formulations (10% w/v % Sulfobutylether-p-cyclodextrin; 90% w/v % 50 mM Citrate Buffer) and administered orally at 5 or 10 mg-eq./kg to a group of three Male Beagle dogs. The animals were fasted overnight prior to dose administration and up to four hours after dosing. The test articles were administrated by oral gavage at a dose volume of 5 ml/kg.
(§1) Blood samples were collected into K2EDTA tubes at predose and 0.25, 0.5, 1, 2, 4, 6, 8, 12, 24 hours post dose, and once daily collection post 24 hours up to 168 hours. Whole blood were stored on wet ice and processed to plasma by centrifugation (3500 rpm for 10 minutes at 5° C.) within 1 hour of collection. Plasma samples were placed in Micronic 96 well tubes and stored at −80° C. until transferred. Plasma concentration of the test compounds was determined by LC-MS/MS. Pharmacokinetic parameters were estimated using non-compartment model analysis. The maximum observed concentration (Cmax) and area under the curve from time of dosing to last measured concentration (AUClast) were calculated and reported.

Another series deals with GP2D (KRAS G12D) cells. As to the kind of experiment: 2D cell viability assay (CellTiter-Glo). It is filed as cell-based. The conditions noted are these: 96 h; GP2D cells, 4 days, CellTiter-Glo luminescence; read-out: G12D 2D EC50. The gist of the method:
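GP2D (KRAS G12D) cells, 1000/well in RPMI + 10% FBS, were plated onto compound (1:3 DMSO series) and grown 4 days at 37 °C, 5% CO2 in 2D. CellTiter-Glo luminescence was read; EC50 is the concentration giving 50% signal decrease, from sigmoidal fit.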
(Cellular ATP, detected with luciferase, serves as a proxy for viable cell number.)

The nature of series [3]: Rat oral pharmacokinetics. Also noted: species or system Male Sprague Dawley rats. To be noted: male, Sprague Dawley, in vivo. As to the method: Rat Oral Pharmacokinetics
Test compounds were formulated in solution formulations (10 w/v % Sulfobutylether-p-cyclodextrin; 90% w/v % 50 mM Citrate Buffer) and administered orally to a group of three Male Sprague Dawley rats. The animals were fasted overnight prior to dose administration and up to four hours after dosing. The test articles were administrated by oral gavage at a dose volume of 5 mL-eq/kg.
as §1, with “collected” for “collected into K2EDTA tubes”, “12, 24, 48 and 72” for “12, 24”, “post dose into K2EDTA tubes” for “post dose,”, “and” for “and once daily collection post 24 hours up to 168 hours. Whole blood were”, “ice until processed. Whole blood was” for “ice and”, “within 30 minutes” for “within 1 hour”

As for `C#Cc1c(F)ccc2cc(O)cc(-c3nc4c5c(nc(OC[C@@]67CCCN6C[C@H](F)C7)nc5c3F)N3C[C@H]5CC[C@H](N5)[C@H]3CCC4)c12` [Comp. Ex. 75, reference compound], the “Mouse Parent AUC” value in series [1] was 51 nM·h. In series [2] (10 mg/kg), the “Dog Parent % F” value came out at 0.6% and the “Dog Parent AUC” value turned out to be 71 nM·h.

For the compound `Cc1oc(=O)oc1CN1[C@@H]2CC[C@H]1[C@H]1CCCc3nc(-c4cc(O)cc5ccc(F)c(OC(F)(F)F)c45)c(F)c4nc(OC[C@@]56CCCN5C[C@H](F)C6)nc(c34)N1C2` [Example 18, 4-(((6aR,7S,10R)-1-fluoro-2-(7-fluoro-3-hydroxy-8-(trifluoromethoxy)naphthalen-1-yl)-13-(((2R,7aS)-2-fluorotetrahydro-1H-pyrrolizin-7a(5H)-yl)methoxy)-5,6,6a,7,8,9,10,11-octahydro-4H-3,11a,12,14,15-pentaaza-7,10-methanocyclohepta[4,5]cycloocta[1,2,3-de]naphthalen-15-yl)methyl)-5-methyl-1,3-dioxol-2-one], in series [2] (10 mg/kg), the “Dog Parent % F” value was 12% and the “Dog Parent AUC” value is 600 nM·h.

As usually defined, the EC50 is the concentration that produces a half-maximal response. In the case of `C#Cc1c(F)ccc2cc(N)cc(-c3nc4c5c(nc(OC[C@@]67CCCN6C[C@H](F)C7)nc5c3F)N3C[C@H]5CC[C@@H]([C@H]3CCC4)N5Cc3oc(=O)oc3C)c12` [Example 33, 4-(((6aR,7S,10R)-2-(3-amino-8-ethynyl-7-fluoronaphthalen-1-yl)-1-fluoro-13-(((2R,7aS)-2-fluorotetrahydro-1H-pyrrolizin-7a(5H)-yl)methoxy)-5,6,6a,7,8,9,10,11-octahydro-4H-3,11a,12,14,15-pentaaza-7,10-methanocyclohepta[4,5]cycloocta[1,2,3-de]naphthalen-15-yl)methyl)-5-methyl-1,3-dioxol-2-one], the EC50 with GP2D (KRAS G12D) cells came to 0.71 nM. Besides, the “Mouse Parent AUC (nM * h)” value in series [1] is 1,500 nM * h. In series [3] (15 mg/kg), the “Rat Parent % F” value is 3.3% and the “Rat Parent AUC” value came out at 180 nM·h. For the same compound, in series [2] (10 mg/kg), the “Dog Parent % F” value came to 11% and the “Dog Parent AUC (nM * h)” value was 2,200 nM * h.

Regarding `C#Cc1c(F)ccc2cc(N)cc(-c3nc4c5c(nc(OC[C@@]67CCCN6C[C@H](F)C7)nc5c3F)N3C[C@H]5CC[C@@H]([C@H]3CCC4)N5Cc3oc(=O)oc3CC)c12` [Example 34, 4-(((6aR,7S,10R)-2-(3-amino-8-ethynyl-7-fluoronaphthalen-1-yl)-1-fluoro-13-(((2R,7aS)-2-fluorotetrahydro-1H-pyrrolizin-7a(5H)-yl)methoxy)-5,6,6a,7,8,9,10,11-octahydro-4H-3,11a,12,14,15-pentaaza-7,10-methanocyclohepta[4,5]cycloocta[1,2,3-de]naphthalen-15-yl)methyl)-5-ethyl-1,3-dioxol-2-one], the EC50 in the series on GP2D (KRAS G12D) cells came out at 0.4 nM. The “Mouse Parent AUC (nM * h)” value in series [1] is 1,300 nM * h. Also, in series [3] (15 mg/kg), the “Rat Parent % F” value was found to be 5% and the “Rat Parent AUC” value stood at 270 nM·h. In series [2] (5 mg/kg), the “Dog Parent % F” value worked out at 12% and the “Dog Parent AUC (nM * h)” value is 1,200 nM * h.

On to `C#Cc1c(F)ccc2cc(O)cc(-c3nc4c5c(nc(OC[C@@]67CCCN6[C@H](COC(C(F)(F)F)(C(F)(F)F)C(F)(F)F)CC7)nc5c3F)N3C[C@H]5CC[C@@H]([C@H]3CCC4)N5Cc3oc(=O)oc3C)c12` [Example 38, 4-(((6aR,7S,10R)-2-(8-ethynyl-7-fluoro-3-hydroxynaphthalen-1-yl)-1-fluoro-13-(((3S,7aS)-3-(((1,1,1,3,3,3-hexafluoro-2-(trifluoromethyl)propan-2-yl)oxy)methyl)tetrahydro-1H-pyrrolizin-7a(5H)-yl)methoxy)-5,6,6a,7,8,9,10,11-octahydro-4H-3,11a,12,14,15-pentaaza-7,10-methanocyclohepta[4,5]cycloocta[1,2,3-de]naphthalen-15-yl)methyl)-5-methyl-1,3-dioxol-2-one], for which, in the series with GP2D (KRAS G12D) cells, the concentration giving a half-maximal response (EC50) came out at 0.25 nM. For the same compound, in series [1], the “Mouse Parent AUC (nM * h)” value is 2,100 nM * h. Further, in series [3] (7.5 mg/kg), the “Rat Parent % F” value was found to be 3% and the “Rat Parent AUC” value worked out at 280 nM·h. Further, in series [2] (5 mg/kg), the “Dog Parent % F” value is recorded as 4.2% and the “Dog Parent AUC” value worked out at 210 nM·h.
